Laboratory results published in patent publication US20260042731A1, “(2,4-DICHLOROPHENOXY)ACETIC ACID ANALOGS” (CORTEVA AGRISCIENCE LLC, priority 2022, published 2026).
Like-named read-outs stand apart in the source and are kept apart here.

What was measured:
[1] = Volatility of compounds measured by thermogravimetric analysis (TGA); format: physicochemical
[2] = system: Ambrosia artemisiifolia (AMBEL), common ragweed; experiment: Postemergence herbicide evaluation, growth of Ambrosia artemisiifolia (AMBEL); format: in vivo; conditions: Ambrosia artemisiifolia, post-emergence, percent reduction in plant size vs untreated control, read-out: AVE. AMBEL; for pest or weed control at 280 g/ha: 280 g ae/ha; for pest or weed control at 560 g/ha: 560 g ae/ha
[3] = system: Amaranthus rudis (AMATA), tall water hemp; experiment: Postemergence herbicide evaluation, growth of Amaranthus rudis (AMATA); format: in vivo; conditions: Amaranthus tuberculatus, post-emergence, percent reduction in plant size vs untreated control, read-out: Ave. AMATA; for pest or weed control at 280 g/ha: 280 g ae/ha; for pest or weed control at 560 g/ha: 560 g ae/ha
[4] = system: Abutilon theophrasti (ABUTH), velvetleaf; experiment: Postemergence herbicide evaluation, growth of Abutilon theophrasti (ABUTH); format: in vivo; conditions: Abutilon theophrasti, post-emergence, percent reduction in plant size vs untreated control, read-out: AVE. ABUTH; for pest or weed control at 280 g/ha: 280 g ae/ha; for pest or weed control at 560 g/ha: 560 g ae/ha
[5] = system: weeds ABUTH, AMATA, AMBEL, CHEAL, ERICA; experiment: Postemergence herbicide evaluation, overall average % weed control across ABUTH, AMATA, AMBEL, CHEAL and ERICA; format: in vivo; conditions: post-emergence, average over five weeds, read-out: Overall Ave % Weed Control; for pest or weed control at 280 g/ha: 280 g ae/ha; for pest or weed control at 560 g/ha: 560 g ae/ha
[6] = system: Chenopodium album (CHEAL), common lambsquarters; experiment: Postemergence herbicide evaluation, growth of Chenopodium album (CHEAL); format: in vivo; conditions: Chenopodium album, post-emergence, percent reduction in plant size vs untreated control, read-out: Ave. CHEAL; for pest or weed control at 280 g/ha: 280 g ae/ha; for pest or weed control at 560 g/ha: 560 g ae/ha
[7] = system: glyphosate resistant Conyza canadensis (L.) (ERICA), horseweed; experiment: Postemergence herbicide evaluation, growth of Conyza canadensis (ERICA); format: in vivo; conditions: Erigeron canadensis, post-emergence, percent reduction in plant size vs untreated control, read-out: Ave. ERICA; for pest or weed control at 280 g/ha: 280 g ae/ha; for pest or weed control at 560 g/ha: 560 g ae/ha

SMILES | TGA Data (rate of weight loss, volatility) [1] | pest or weed control at 280 g/ha ([2]; 168 h, 7 DAA) | pest or weed control at 280 g/ha ([2]; 336 h, 14 DAA) | pest or weed control at 560 g/ha ([2]; 336 h, 14 DAA) | pest or weed control at 280 g/ha ([2]; 504 h, 21 DAA) | pest or weed control at 560 g/ha ([2]; 504 h, 21 DAA) | pest or weed control at 280 g/ha ([3]; 168 h, 7 DAA) | pest or weed control at 280 g/ha ([3]; 336 h, 14 DAA) | pest or weed control at 560 g/ha ([3]; 336 h, 14 DAA) | pest or weed control at 280 g/ha ([3]; 504 h, 21 DAA) | pest or weed control at 560 g/ha ([3]; 504 h, 21 DAA) | pest or weed control at 280 g/ha ([4]; 168 h, 7 DAA) | pest or weed control at 280 g/ha ([4]; 336 h, 14 DAA) | pest or weed control at 560 g/ha ([4]; 336 h, 14 DAA) | pest or weed control at 280 g/ha ([4]; 504 h, 21 DAA) | pest or weed control at 560 g/ha ([4]; 504 h, 21 DAA) | pest or weed control at 280 g/ha ([5]; 168 h, 7 DAA) | pest or weed control at 280 g/ha ([5]; 336 h, 14 DAA) | pest or weed control at 560 g/ha ([5]; 336 h, 14 DAA) | pest or weed control at 280 g/ha ([5]; 504 h, 21 DAA) | further results
O=C(COc1ccc(Cl)cc1Cl)Oc1cccnc1 [Compound E9] | 0.6748 µg/min | 80% | 90% | 97.5% | 100% | 100% | 77.5% | 85% | 87.5% | 92.5% | 94% | 57.5% | 75% | 98% | 88.5% | 99.5% | 74.5% | 89.2% | 96.4% | 94% | pest or weed control at 660 g/ha ([2]; 168 h, 660 g ae/ha, 7 DAA): 87.5%; pest or weed control at 660 g/ha ([3]; 168 h, 660 g ae/ha, 7 DAA): 92.5%; pest or weed control at 660 g/ha ([4]; 168 h, 660 g ae/ha, 7 DAA): 82.5%; pest or weed control at 660 g/ha ([5]; 168 h, 660 g ae/ha, 7 DAA): 84%; pest or weed control at 560 g/ha ([5]; 504 h, 21 DAA): 97.4%; pest or weed control at 280 g/ha ([6]; 168 h, 7 DAA): 75%; pest or weed control at 660 g/ha ([6]; 168 h, 660 g ae/ha, 7 DAA): 80%; pest or weed control at 280 g/ha ([6]; 336 h, 14 DAA): 96.5%; pest or weed control at 560 g/ha ([6]; 336 h, 14 DAA): 99%; pest or weed control at 280 g/ha ([6]; 504 h, 21 DAA): 90%; pest or weed control at 560 g/ha ([6]; 504 h, 21 DAA): 93.5%; pest or weed control at 280 g/ha ([7]; 168 h, 7 DAA): 82.5%; pest or weed control at 660 g/ha ([7]; 168 h, 660 g ae/ha, 7 DAA): 77.5%; pest or weed control at 280 g/ha ([7]; 336 h, 14 DAA): 99.5%; pest or weed control at 560 g/ha ([7]; 336 h, 14 DAA): 100%; pest or weed control at 280 g/ha ([7]; 504 h, 21 DAA): 99%; pest or weed control at 560 g/ha ([7]; 504 h, 21 DAA): 100%
O=C(COc1ccc(Cl)cc1Cl)Oc1ccccn1 [Compound E11] | 0.4827 µg/min | 77.5% | 70% | 90% | 100% | 100% | 70% | 90% | 93.5% | 67.5% | 90% | 65% | 85% | 97.5% | 98.5% | 100% | 74.5% | 88% | 95.6% | 91.7% | pest or weed control at 560 g/ha ([2]; 168 h, 7 DAA): 80%; pest or weed control at 560 g/ha ([3]; 168 h, 7 DAA): 85%; pest or weed control at 560 g/ha ([4]; 168 h, 7 DAA): 82.5%; pest or weed control at 560 g/ha ([5]; 168 h, 7 DAA): 82.5%; pest or weed control at 560 g/ha ([5]; 504 h, 21 DAA): 98%; pest or weed control at 280 g/ha ([6]; 168 h, 7 DAA): 77.5%; pest or weed control at 560 g/ha ([6]; 168 h, 7 DAA): 80%; pest or weed control at 280 g/ha ([6]; 336 h, 14 DAA): 97.5%; pest or weed control at 560 g/ha ([6]; 336 h, 14 DAA): 98%; pest or weed control at 280 g/ha ([6]; 504 h, 21 DAA): 92.5%; pest or weed control at 560 g/ha ([6]; 504 h, 21 DAA): 100%; pest or weed control at 280 g/ha ([7]; 168 h, 7 DAA): 82.5%; pest or weed control at 560 g/ha ([7]; 168 h, 7 DAA): 85%; pest or weed control at 280 g/ha ([7]; 336 h, 14 DAA): 97.5%; pest or weed control at 560 g/ha ([7]; 336 h, 14 DAA): 90%; pest or weed control at 280 g/ha ([7]; 504 h, 21 DAA): 100%; pest or weed control at 560 g/ha ([7]; 504 h, 21 DAA): 100%
